Assay results as given in patent US5484778A, “Phthalocyanine photosensitizers for photodynamic therapy and methods for their use” (priority 1993, dated 1996).

Tested on: Chinese hamster fibroblasts, i.e. V79 cells
Excerpt: Initially, applicants examined the photocytotoxicity of twenty-one phthalocyanines taken from a collection in the applicants' laboratories to Chinese hamster fibroblasts, i.e. V79 cells.

**Q.** What does the source list for `CCN(CC)CC(O)COCCC[Si](C)(C)O[Si]1(O)n2c3c4ccccc4c2N=C2N=C(N=c4c5ccccc5c(n41)=NC1=NC(=N3)c3ccccc31)c1ccccc12` (centres unmarked) [HOSiPcOSi(CH3)2 (CH2)3 OCH2 --CHOHCH2 N(C2 H5) 2]?
**A.** photocytotoxicity (in words): excellent photocytotoxicity; uptake by V79 cells (in words): taken up efficiently by the Chinese hamster fibroblast V79 cells
